Test [1] has as its target T1, 5-hydroxytryptamine receptor 2A (Homo sapiens, UniProt P28223). In words: Binding affinity to 5-HT2A receptor (unknown origin) by PDSP assay.
For test [2], the target named is T2, 5-hydroxytryptamine receptor 2C (Homo sapiens, UniProt P28335).
T2 sequence (P28335 whole entry): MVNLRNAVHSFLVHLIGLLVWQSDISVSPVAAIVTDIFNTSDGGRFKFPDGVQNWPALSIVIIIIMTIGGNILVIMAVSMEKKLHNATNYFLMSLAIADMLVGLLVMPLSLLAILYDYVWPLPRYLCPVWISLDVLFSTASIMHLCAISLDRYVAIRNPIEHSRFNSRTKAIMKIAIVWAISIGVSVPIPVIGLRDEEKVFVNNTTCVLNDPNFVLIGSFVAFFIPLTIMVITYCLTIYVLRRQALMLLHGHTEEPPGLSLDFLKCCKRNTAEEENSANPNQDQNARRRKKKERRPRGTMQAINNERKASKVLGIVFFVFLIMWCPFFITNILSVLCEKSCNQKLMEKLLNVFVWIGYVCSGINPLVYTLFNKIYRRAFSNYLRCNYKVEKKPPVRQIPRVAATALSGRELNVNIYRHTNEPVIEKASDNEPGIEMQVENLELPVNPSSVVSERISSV
The test is described as follows: Binding affinity to 5-HT2C receptor (unknown origin) by PDSP assay.

Test [3] addresses T3, Serotonin 2 receptors; 5-HT2a & 5-HT2c (Homo sapiens) (UniProt P28223+P28335). The test is described as follows: Selectivity for 5-HT2A receptor (unknown origin) over 5-HT2C receptor (unknown origin) by PDSP assay.
The target of test [4] is T2, 5-hydroxytryptamine receptor 2C. The test is described as follows: Partial agonist activity at human 5-HT2C receptor expressed in HEK293 cells preincubated for 1 hr at 37 degC followed by incubated for 15 mins at room temperature by IP-One assay. In kind it is cell-based.
Test [5] deals with T3, Serotonin 2 receptors; 5-HT2a & 5-HT2c (Homo sapiens). The test is described as follows: Selectivity for human 5-HT2A receptor over human 5-HT2C receptor by IP-One assay.
Test [6] addresses T1, 5-hydroxytryptamine receptor 2A. In words: Partial agonist activity at human 5-HT2A receptor expressed in HEK293 cells preincubated for 1 hr at 37 degC followed by incubated for 15 mins at room temperature by IP-One assay relative to 5-HT. In kind it is cell-based.
Test [7] addresses T4, 5-hydroxytryptamine receptor 2C (Homo sapiens) (UniProt P28335).
T4 sequence (whole entry): T2 sequence (P28335 whole entry)
The test is described as follows: Partial agonist activity at human 5-HT2C receptor expressed in HEK293 cells preincubated for 1 hr at 37 degC followed by incubated for 15 mins at room temperature by IP-One assay relative to 5-HT. It counts as cell-based.

The target in test [8] is T1, 5-hydroxytryptamine receptor 2A.
Test [9] can be described thus: Selectivity for human 5-HT2A receptor over rat 5-HT2C receptor by PDSP assay.
Test [10] concerns the target T1, 5-hydroxytryptamine receptor 2A. The test is described as follows: Partial agonist activity at human 5-HT2A receptor expressed in human tsA201 cells after 30 mins by inositol phosphate turnover assay. It counts as functional, cell-based.
For test [11], the target named is T2, 5-hydroxytryptamine receptor 2C. In words: Partial agonist activity at human 5-HT2C receptor expressed in human tsA201 cells after 30 mins by inositol phosphate turnover assay. It counts as functional, cell-based.
Test [12] has as its target T3, Serotonin 2 receptors; 5-HT2a & 5-HT2c (Homo sapiens). In words: Selectivity for human 5-HT2A receptor over human 5-HT2C receptor by inositol phosphate turnover assay. In kind it is functional.
Test [13] deals with T1, 5-hydroxytryptamine receptor 2A. In words: Partial agonist activity at human 5-HT2A receptor expressed in human tsA201 cells after 30 mins by inositol phosphate turnover assay relative to 5-HT. It counts as functional, cell-based.
The target of test [14] is T4, 5-hydroxytryptamine receptor 2C (Homo sapiens). In words: Partial agonist activity at human 5-HT2C receptor expressed in human tsA201 cells after 30 mins by inositol phosphate turnover assay relative to 5-HT. In kind it is functional, cell-based.
The target of test [15] is T1, 5-hydroxytryptamine receptor 2A. In words: Displacement of [3H]-Ketanserin from human 5-HT2A receptor by PDSP assay. (Loss of bound radioactivity is the signal in a displacement assay; it reports binding, not function.)
Test [16] deals with T5, 5-hydroxytryptamine receptor 2C (Rattus norvegicus, UniProt P08909).
T5 sequence (P08909 whole entry): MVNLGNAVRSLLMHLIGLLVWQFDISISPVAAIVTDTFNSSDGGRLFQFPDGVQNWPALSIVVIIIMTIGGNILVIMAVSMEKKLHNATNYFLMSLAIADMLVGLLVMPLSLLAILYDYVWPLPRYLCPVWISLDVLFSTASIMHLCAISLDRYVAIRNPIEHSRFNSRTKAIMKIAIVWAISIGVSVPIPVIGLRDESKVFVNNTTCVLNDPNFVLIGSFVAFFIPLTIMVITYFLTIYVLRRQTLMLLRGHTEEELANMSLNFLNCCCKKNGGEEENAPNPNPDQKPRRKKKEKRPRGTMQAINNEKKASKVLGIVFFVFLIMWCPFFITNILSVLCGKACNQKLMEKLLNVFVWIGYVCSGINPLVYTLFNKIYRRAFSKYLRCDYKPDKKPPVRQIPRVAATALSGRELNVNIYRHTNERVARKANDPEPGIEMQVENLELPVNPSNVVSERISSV
The test is described as follows: Displacement of [3H]-Mesulergine from rat 5-HT2C receptor by PDSP assay.

pEC50, pKi: −log10 of the molar value.

The results in this text go back to ChEMBL document CHEMBL3588775, “Synthesis and pharmacological evaluation of N-benzyl substituted 4-bromo-2,5-dimethoxyphenethylamines as 5-HT2A/2C partial agonists” (Bioorg Med Chem, 2015).

T3 sequence (P28223 whole entry, looked up, one chain of several): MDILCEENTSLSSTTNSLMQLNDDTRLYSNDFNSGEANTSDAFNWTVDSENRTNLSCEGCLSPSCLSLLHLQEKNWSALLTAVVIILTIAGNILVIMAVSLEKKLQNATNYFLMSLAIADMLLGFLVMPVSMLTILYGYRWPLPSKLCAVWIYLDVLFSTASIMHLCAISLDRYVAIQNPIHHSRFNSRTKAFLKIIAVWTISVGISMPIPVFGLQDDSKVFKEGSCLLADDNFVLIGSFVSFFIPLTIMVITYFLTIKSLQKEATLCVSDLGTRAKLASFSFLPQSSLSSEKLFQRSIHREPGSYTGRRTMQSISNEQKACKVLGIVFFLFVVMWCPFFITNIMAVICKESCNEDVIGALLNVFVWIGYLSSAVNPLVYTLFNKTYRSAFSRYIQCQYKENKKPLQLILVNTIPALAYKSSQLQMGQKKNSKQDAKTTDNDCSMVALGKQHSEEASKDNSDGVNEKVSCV
T1 sequence (P28223 whole entry): as the sequence (P28223 whole entry, looked up, one chain of several) above

For `COc1cccc(CNCCc2cc(OC)c(Br)cc2OC)c1`, the pKi (as a rule, the negative decadic logarithm of the Ki, by convention in mol/L) was 9.36 in [1] and 8.33 in test [2]. Moreover, the Selectivity ratio in [3] turned out to be 11.

Consider `COc1cc(CCNCc2cccc(OC)c2OC)c(OC)cc1Br`, for which the pKi in test [1] is 8.51; in test [2], 7.63. In addition, the Selectivity ratio in test [3] was 7.5.

Consider `COc1cc(CCNCc2cccc(O)c2)c(OC)cc1Br`, for which the figures for the pKi in test [1] and in test [2] were 8.87 and 7.68, respectively. Moreover, the Selectivity ratio in [3] was 16.

As to `COc1cc(CCNCc2cccc3ccoc23)c(OC)cc1Br`, the figures for the pKi in test [1] and in test [2] were 9.22 and 8.60, respectively. Moreover, the Selectivity ratio in [3] stood at 4.2.

In the case of `COc1cc(CCNCc2cccc(OC)c2F)c(OC)cc1Br`, the pKi in [1] was 8.48; in test [2], 7.25. In addition, the Selectivity ratio in test [3] is 17; in test [5], 2.7. Further, the pEC50 (in general, the negative decadic logarithm of the EC50, by convention in mol/L) in [4] was 6.55; in test [8] it was 6.98. Besides, the Emax – broadly, the greatest response seen or fitted, relative to the assay's reference – in test [6] turned out to be 22%; in test [7], 16%.

`COc1cc(CC(C)N)c(OC)cc1I` (configuration not stated) gave a pEC50 in [4] of 7.34. Also, the Emax came out at 87% in test [6] and 119% in test [7].

On to `COc1ccc(CNCCc2cc(OC)c(Br)cc2OC)c(OC)c1`, for which the pKi in test [1] is 7.70; in [2] it was 7.57. Also, the Selectivity ratio in test [3] was 1.3.

Regarding `COc1ccc(OC)c(CNCCc2cc(OC)c(Br)cc2OC)c1`, the values for the negative-log Ki (pKi) in test [1] and in [2] were 7.51 and 7.11, respectively. Moreover, the Selectivity ratio in [3] is 2.5.

For the compound `COc1cc(CCNCc2c(OC)cccc2OC)c(OC)cc1Br`, the negative-log Ki (pKi) in test [1] was 6.50; in test [2], 7.76. The figures for the Selectivity ratio in test [3] and in [5] were 0.06 and 16, respectively. In addition, the negative-log EC50 (pEC50) is 4.06 in test [4] and 5.27 in test [8]. In addition, the Emax in test [6] was found to be 53%; in test [7], 33%.

`COc1cc(CCNCc2cccc3c2OCC3)c(OC)cc1Br`: the pKi was 9.70 in test [1] and 8.47 in [2]. Further, the Selectivity ratio came to 17 in [3] and 7.1 in test [5]. For the same compound, the values for the negative logarithm of the EC50 (pEC50) in test [4] and in [8] were 7.49 and 8.34, respectively. In addition, the maximal effect (Emax) in test [6] is 33%; in test [7], 52%.

In the case of `COc1cc(CCNCc2cccnc2)c(OC)cc1Br`, the figures for the pKi in test [1] and in test [2] were 7.08 and 6.92, respectively. Also, in [3], the Selectivity ratio stood at 1.4.

For the compound `COc1cc(CCNCc2ccccc2OC)c(OC)cc1Br`, the Selectivity ratio in [9] was found to be 100.

With `COc1cc(CCNCc2cccnc2OC)c(OC)cc1Br`, the negative-log Ki (pKi) is 7.10 in test [1] and 7.15 in test [2]. Besides, the Selectivity ratio in [3] was determined as 0.9.

In the case of `COc1cc(CCNCc2cccc3nc[nH]c23)c(OC)cc1Br`, the negative logarithm of the Ki (pKi) in test [1] is 8.11; in test [2], 8.03. In addition, the Selectivity ratio in [3] amounted to 1.2.

`COc1cc(CCNCc2ccccn2)c(OC)cc1Br`: the pKi in test [1] is 7.41; in test [2], 7.38. Besides, the Selectivity ratio in test [3] is 1.1.

Take `COc1cc(CCNCc2cccc3ncoc23)c(OC)cc1Br`: the pKi in [1] was 7.96; in test [2] it was 7.49. The Selectivity ratio in [3] was found to be 2.9.

With `COc1cc(CCNCc2cccc3c2OCO3)c(OC)cc1Br`, the pEC50 in [10] was 7.98; in [11], 6.66. Besides, the Selectivity ratio worked out at 18 in test [12] and 18.6 in [9]. In addition, the Emax was 71% in [13] and 84% in test [14]. Besides, the pKi in test [15] is 9.22; in test [16], 7.95.

As to `COc1cc(CCNCc2cccc3ccsc23)c(OC)cc1Br`, the pKi in [1] was 8.77; in [2] it was 8.11. Also, the Selectivity ratio in test [3] worked out at 4.5.

On to `COc1cc(CCNCc2ccncc2)c(OC)cc1Br`, for which the pKi is 6.85 in [1] and 6.81 in test [2]. Also, in test [3], the Selectivity ratio stood at 1.1.

In the case of `COc1cc(CCNCc2cccc3cc[nH]c23)c(OC)cc1Br`, the negative logarithm of the Ki (pKi) in [1] is 7.89; in [2] it was 7.18. Besides, the Selectivity ratio in [3] was determined as 5.1.

As for `COc1cc(CCNCc2ccc[nH]c2=O)c(OC)cc1Br`, the pKi in test [1] was 6.91; in test [2], 6.92. For the same compound, in test [3], the Selectivity ratio is 1.

As to `COc1cc(CCNCc2cccc3cn[nH]c23)c(OC)cc1Br`, the pKi in [1] was 7.92; in test [2], 7.62. For the same compound, in test [3], the Selectivity ratio was 2.

Regarding `COc1cc(CCNCc2cccc(OC)c2O)c(OC)cc1Br`, the negative-log Ki (pKi) was 9.70 in [1] and 8.20 in [2]. The Selectivity ratio in test [3] was 32; in [5] it was 457. Also, the pEC50 in test [4] is 4.81; in [8] it was 7.47. The maximal response (Emax) in test [6] was 21%; in [7], 52%.
